Reference: US9247750B2, “Polyenylcyclopropanecarboxylic esters with high insecticidal activity” (Endura S.P.A., priority 2007, dated 2016)

Experiments:
Assay type in all cases: in vivo
[1] = system: Blattella germanica; test: Effectiveness of residual insecticide on surfaces (glazed tiles) against cockroaches (Example 6); conditions: for Time to reach 100% knock-down followed by death: 50 mg/m^2 on glazed tiles
Protocol: Solutions of the compound of example 3 in acetone and, for comparison, of the reference compounds Transfluthrin and Metofluthrin were applied from a distance of 12 cm onto glazed tiles (Ostara model, 15×15 cm=225 cm^2) by means of a suitable glass sprayer, so as to obtain an applied amount of pure compound equal to 50 mg/m^2. After treatment the tiles were transferred to and maintained in a closed test room at controlled temperature and humidity (24-25° C., RH 50-60%). Glass rings (H 5.5 cm×Ø 9.5 cm), with their internal surface treated with talc, and each containing 5 cockroaches, were positioned at the centre of the tiles for each of the assessment times of 24 hours, 3, 7, 10 and 14 days following treatment. For each assessment day, the insects were maintained on the surface for 24 hours and the time (hours, minutes) necessary to attain 100% knock-down followed by death, or percentage knock-down at the end of 24 hours, were recorded.

[2] = system: Aedes aegypti; test: Insecticide effectiveness in the vapour phase against mosquitoes, impregnated paper unit in 20 m^3 room (Example 5); conditions: 5 mg/unit; for % mortality 24 h: 24th hour from start of test; for % Knock-down 8 h: at end of 8th hour; for Knock-down time KT10 / Knock-down time KT50 / Knock-down time KT90: average of 3 cages
Protocol: (§1) Test units consisting of a paper support 20 cm×10 cm in size were impregnated with the compound of example 3 and, for comparative purposes, with the reference compounds transfluthrin and metofluthrin, at an amount of 5.00 mg/unit for each compound (pure).
(§2) Using a common laboratory stand, the test unit was placed at a height of about 30 cm from the ground along one side of a 20 m^3 room (L 3.00 m×D 2.49 m×H 2.69 m). In order to homogenize the insecticidal air within the room, a small electric fan was placed on the floor diagonal to the surface of the unit, in the is nearest corner at a distance of about 50 cm from the unit. Three metal cages (L 8.4 cm×Ø 8.0 cm×mesh 1.0 mm) for every mosquito species, each containing 20 3-4 day old individuals of mixed sex, were placed along the other three sides of the room, at a height of 1.80 m from the ground and at a distance of 0.45 m from the respective walls. During the test the room was kept closed and temperature and humidity were controlled (T 23-26° C., RH 49-61%).
(§3) The fan was switched on and left on for 8 continuous hours. The times needed to reach 10%, 50% and 90% insect knock-down (KT10, KT50 and KT90, respectively) were recorded.
(§4) Every 2 hours and up to the 6th hour after the fan was switched on, new cages were introduced containing insects (set of 3 cages for each species).
(§5) At the end of the 8th hour, the percentage of insects knocked down in all the cages was determined, then the insects were removed from the room and transferred into an uncontaminated atmosphere within closed containers containing a sugary solution. The percentage mortality was recorded at the 24th hour from the start of the test.
(§6) The results obtained are summarized in tables 1 and 2 and the data are averages for the 3 cages.

[3] = system: Culex quinquefasciatus; test: as above; conditions: 5 mg/unit; for % mortality 24 h: 24th hour from start of test; for % Knock-down 8 h: at end of 8th hour; for Knock-down time KT10 / Knock-down time KT50 / Knock-down time KT90: average of 3 cages
Protocol: as §1, §2, §3, §4, §5, §6

[4] = system: Aedes aegypti; test: Insecticide effectiveness in the vapour phase against mosquitoes, impregnated paper unit in 20 m^3 room (Example 9); conditions: 5 mg/unit; for % mortality 24 h: 24th hour from start of test; for % Knock-down 8 h: at end of 8th hour; for Knock-down time KT10 / Knock-down time KT50 / Knock-down time KT90: average of 3 cages
Protocol: as §2, with “Test units consisting of a paper support 20 cm×10 cm in size were impregnated with the compound of examples 3, 7 and 8 and, for comparative purposes, with the reference compounds transfluthrin and metofluthrin, at an amount of 5.00 mg/unit for each compound (pure). Using” for “Using”, “the” for “the is”, “49-61%). The fan was switched on and left on for 8 continuous hours. The times needed to reach 10%, 50% and 90% insect knock-down (KT10, KT50 and KT90, respectively) were recorded.” for “49-61%).”
as §4, §5, §6

[5] = system: Culex quinquefasciatus; test: as above; conditions: 5 mg/unit; for % mortality 24 h: 24th hour from start of test; for % Knock-down 8 h: at end of 8th hour; for Knock-down time KT10 / Knock-down time KT50 / Knock-down time KT90: average of 3 cages
Protocol: as §2, with “Test units consisting of a paper support 20 cm×10 cm in size were impregnated with the compound of examples 3, 7 and 8 and, for comparative purposes, with the reference compounds transfluthrin and metofluthrin, at an amount of 5.00 mg/unit for each compound (pure). Using” for “Using”, “the” for “the is”, “49-61%). The fan was switched on and left on for 8 continuous hours. The times needed to reach 10%, 50% and 90% insect knock-down (KT10, KT50 and KT90, respectively) were recorded.” for “49-61%).”
as §4, §5, §6

For `C=CC=C[C@@H]1[C@@H](C(=O)OCc2c(F)c(F)cc(F)c2F)C1(C)C` (mixture of isomers) [Example 3, 2,3,5,6-tetrafluorobenzyl(1R,3R)-3-((E/Z)-Buta-1,3-dienyl)-2,2-dimethylcyclopropane-1-carboxylate], the “Time to reach 100% knock-down followed by death” value ([1]; 1 day after treatment) was 15′ minutes, the “Time to reach 100% knock-down followed by death” value ([1]; 3 days after treatment) was 15′ minutes and the “Time to reach 100% knock-down followed by death” value ([1]; 7 days after treatment) was 15′ minutes. For the same compound, the “Time to reach 100% knock-down followed by death” value ([1]; 10 days after treatment) was 15′ minutes, the “Time to reach 100% knock-down followed by death” value ([1]; 14 days after treatment) was 15′ minutes and the “time of exposure to total knock-down (100%)” value ([1]; table 3) was no more than 15 min. For the same compound, the “% mortality 24 h” value ([2]; insect exposure after 0 hours) was 100%, the “% Knock-down 8 h” value ([2]; insect exposure after 0 hours) was 100% and the “Knock-down time KT10” value ([2]; insect exposure after 0 hours) was 16 min. The “Knock-down time KT50” value ([2]; insect exposure after 0 hours) was 19 min, the “Knock-down time KT90” value ([2]; insect exposure after 0 hours) was 25 min and the “% mortality 24 h” value ([2]; insect exposure after 2 hours) was 100%. For the same compound, the “% Knock-down 8 h” value ([2]; insect exposure after 2 hours) was 100%, the “Knock-down time KT10” value ([2]; insect exposure after 2 hours) was 4 min and the “Knock-down time KT50” value ([2]; insect exposure after 2 hours) was 6 min. For the same compound, the “Knock-down time KT90” value ([2]; insect exposure after 2 hours) was 9 min, the “% mortality 24 h” value ([2]; insect exposure after 4 hours) was 100% and the “% Knock-down 8 h” value ([2]; insect exposure after 4 hours) was 100%. The “Knock-down time KT10” value ([2]; insect exposure after 4 hours) was 4 min, the “Knock-down time KT50” value ([2]; insect exposure after 4 hours) was 6 min and the “Knock-down time KT90” value ([2]; insect exposure after 4 hours) was 11 min. For the same compound, the “% mortality 24 h” value ([3]; insect exposure after 0 hours) was 100%, the “% Knock-down 8 h” value ([3]; insect exposure after 0 hours) was 100% and the “Knock-down time KT10” value ([3]; insect exposure after 0 hours) was 20 min. For the same compound, the “Knock-down time KT50” value ([3]; insect exposure after 0 hours) was 23 min, the “Knock-down time KT90” value ([3]; insect exposure after 0 hours) was 31 min and the “% mortality 24 h” value ([3]; insect exposure after 2 hours) was 100%. The “% Knock-down 8 h” value ([3]; insect exposure after 2 hours) was 100%, the “Knock-down time KT10” value ([3]; insect exposure after 2 hours) was 6 min and the “Knock-down time KT50” value ([3]; insect exposure after 2 hours) was 8 min. For the same compound, the “Knock-down time KT90” value ([3]; insect exposure after 2 hours) was 12 min, the “% mortality 24 h” value ([3]; insect exposure after 4 hours) was 100% and the “% Knock-down 8 h” value ([3]; insect exposure after 4 hours) was 100%. The “Knock-down time KT10” value ([3]; insect exposure after 4 hours) was 6 min, the “Knock-down time KT50” value ([3]; insect exposure after 4 hours) was 10 min and the “Knock-down time KT90” value ([3]; insect exposure after 4 hours) was 18 min. For the same compound, the “% mortality 24 h” value ([4]; insect exposure after 0 hours) was 100%, the “% Knock-down 8 h” value ([4]; insect exposure after 0 hours) was 100% and the “Knock-down time KT10” value ([4]; insect exposure after 0 hours) was 16 min. For the same compound, the “Knock-down time KT50” value ([4]; insect exposure after 0 hours) was 20 min, the “Knock-down time KT90” value ([4]; insect exposure after 0 hours) was 26 min and the “% mortality 24 h” value ([4]; insect exposure after 2 hours) was 100%. For the same compound, the “% Knock-down 8 h” value ([4]; insect exposure after 2 hours) was 100%, the “Knock-down time KT10” value ([4]; insect exposure after 2 hours) was 5 min and the “Knock-down time KT50” value ([4]; insect exposure after 2 hours) was 8 min. For the same compound, the “Knock-down time KT90” value ([4]; insect exposure after 2 hours) was 11 min, the “% mortality 24 h” value ([4]; insect exposure after 4 hours) was 100% and the “% Knock-down 8 h” value ([4]; insect exposure after 4 hours) was 100%. The “Knock-down time KT10” value ([4]; insect exposure after 4 hours) was 5 min, the “Knock-down time KT50” value ([4]; insect exposure after 4 hours) was 8 min and the “Knock-down time KT90” value ([4]; insect exposure after 4 hours) was 12 min. For the same compound, the “% mortality 24 h” value ([5]; insect exposure after 0 hours) was 100%, the “% Knock-down 8 h” value ([5]; insect exposure after 0 hours) was 100% and the “Knock-down time KT10” value ([5]; insect exposure after 0 hours) was 23 min. The “Knock-down time KT50” value ([5]; insect exposure after 0 hours) was 28 min, the “Knock-down time KT90” value ([5]; insect exposure after 0 hours) was 35 min and the “% mortality 24 h” value ([5]; insect exposure after 2 hours) was 100%. For the same compound, the “% Knock-down 8 h” value ([5]; insect exposure after 2 hours) was 100%, the “Knock-down time KT10” value ([5]; insect exposure after 2 hours) was 7 min and the “Knock-down time KT50” value ([5]; insect exposure after 2 hours) was 11 min. For the same compound, the “Knock-down time KT90” value ([5]; insect exposure after 2 hours) was 15 min, the “% mortality 24 h” value ([5]; insect exposure after 4 hours) was 100% and the “% Knock-down 8 h” value ([5]; insect exposure after 4 hours) was 100%. The “Knock-down time KT10” value ([5]; insect exposure after 4 hours) was 8 min, the “Knock-down time KT50” value ([5]; insect exposure after 4 hours) was 10 min and the “Knock-down time KT90” value ([5]; insect exposure after 4 hours) was 14 min.

With `C=CC=C[C@@H]1[C@@H](C(=O)OCc2coc(Cc3ccccc3)c2)C1(C)C` (mixture of isomers) [Example 7, (2-benzyl-4-hydroxymethylfuryl) (1R,3R)-3-((E/Z)-Buta-1,3-dienyl)-2,2-dimethylcyclopropane-1-carboxylate] the “% mortality 24 h” value ([4]; insect exposure after 0 hours) was 79%, the “% Knock-down 8 h” value ([4]; insect exposure after 0 hours) was 5% and the “% mortality 24 h” value ([4]; insect exposure after 2 hours) was 79%. The “% Knock-down 8 h” value ([4]; insect exposure after 2 hours) was 0%, the “% mortality 24 h” value ([4]; insect exposure after 4 hours) was 65% and the “% Knock-down 8 h” value ([4]; insect exposure after 4 hours) was 0%. For the same compound, the “% mortality 24 h” value ([5]; insect exposure after 0 hours) was 70%, the “% Knock-down 8 h” value ([5]; insect exposure after 0 hours) was 8% and the “% mortality 24 h” value ([5]; insect exposure after 2 hours) was 35%. For the same compound, the “% Knock-down 8 h” value ([5]; insect exposure after 2 hours) was 2%, the “% mortality 24 h” value ([5]; insect exposure after 4 hours) was 23% and the “% Knock-down 8 h” value ([5]; insect exposure after 4 hours) was 0%.

`C=CC=C[C@@H]1[C@@H](C(=O)OCc2c(F)c(F)c(COC)c(F)c2F)C1(C)C` (mixture of isomers) [Example 8, 2,3,5,6-tetrafluoro-4-methoxymethyl benzyl(1R,3R)-3-((E/Z)-Buta-1,3-dienyl)-2,2-dimethylcyclopropane-1-carboxylate] was tested, and the “% mortality 24 h” value ([4]; insect exposure after 0 hours) was 100%, the “% Knock-down 8 h” value ([4]; insect exposure after 0 hours) was 100% and the “Knock-down time KT10” value ([4]; insect exposure after 0 hours) was 22 min. For the same compound, the “Knock-down time KT50” value ([4]; insect exposure after 0 hours) was 31 min, the “Knock-down time KT90” value ([4]; insect exposure after 0 hours) was 40 min and the “% mortality 24 h” value ([4]; insect exposure after 2 hours) was 100%. The “% Knock-down 8 h” value ([4]; insect exposure after 2 hours) was 100%, the “Knock-down time KT10” value ([4]; insect exposure after 2 hours) was 12 min and the “Knock-down time KT50” value ([4]; insect exposure after 2 hours) was 29 min. For the same compound, the “Knock-down time KT90” value ([4]; insect exposure after 2 hours) was 41 min, the “% mortality 24 h” value ([4]; insect exposure after 4 hours) was 100% and the “% Knock-down 8 h” value ([4]; insect exposure after 4 hours) was 100%. For the same compound, the “Knock-down time KT10” value ([4]; insect exposure after 4 hours) was 18 min, the “Knock-down time KT50” value ([4]; insect exposure after 4 hours) was 32 min and the “Knock-down time KT90” value ([4]; insect exposure after 4 hours) was 50 min. The “% mortality 24 h” value ([5]; insect exposure after 0 hours) was 83%, the “% Knock-down 8 h” value ([5]; insect exposure after 0 hours) was 100% and the “Knock-down time KT10” value ([5]; insect exposure after 0 hours) was 35 min. For the same compound, the “Knock-down time KT50” value ([5]; insect exposure after 0 hours) was 44 min, the “Knock-down time KT90” value ([5]; insect exposure after 0 hours) was 70 min and the “% mortality 24 h” value ([5]; insect exposure after 2 hours) was 70%. The “% Knock-down 8 h” value ([5]; insect exposure after 2 hours) was 100%, the “Knock-down time KT10” value ([5]; insect exposure after 2 hours) was 39 min and the “Knock-down time KT50” value ([5]; insect exposure after 2 hours) was 50 min. For the same compound, the “Knock-down time KT90” value ([5]; insect exposure after 2 hours) was 68 min, the “% mortality 24 h” value ([5]; insect exposure after 4 hours) was 61% and the “% Knock-down 8 h” value ([5]; insect exposure after 4 hours) was 100%. For the same compound, the “Knock-down time KT10” value ([5]; insect exposure after 4 hours) was 39 min, the “Knock-down time KT50” value ([5]; insect exposure after 4 hours) was 53 min and the “Knock-down time KT90” value ([5]; insect exposure after 4 hours) was 66 min.
